Experiments:
[1] = Antioxidant activity assessed as galvinoxyl radical scavenging activity by measuring second order rate constant by UV-vis spectrometric analysis; assay type: functional
[2] = Antioxidant activity assessed as galvinoxyl radical scavenging activity by measuring increase in pseudo first-order rate constant UV-vis spectrometric analysis; assay type: functional

| SMILES | K [1] | Activity [2] |
| --- | --- | --- |
| Cc1cc(-c2oc3cc(O)ccc3c(=O)c2O)cc(O)c1O | 1.66 ×10⁵ /M/s | – |
| Cc1c(-c2oc3cc(O)ccc3c(=O)c2O)ccc(O)c1O | 1.55 ×10² /M/s | – |
| O=c1c(O)c(-c2ccc(O)c(O)c2)oc2cc(O)ccc12 | 7.58 ×10¹ /M/s | – |
| Cc1cc(-c2oc3cc(O)ccc3c(=O)c2O)c(C)c(O)c1O | 1.58 ×10³ /M/s | Dose-dependent effect |
